Measured values taken from ChEMBL document CHEMBL5331067, “Disubstituted pyrimidine-5-carboxamide derivatives as novel HIV-1 NNRTIs: Crystallographic overlay-based molecular design, synthesis, and biological evaluation” (Eur J Med Chem, 2023).
pEC50, pIC50: −log10 of the molar value.

What was measured:
[1] = (§1) Fold resistance, ratio of EC50 for antiviral activity against NNRTI-resistant HIV-1 harboring Y188L mutant infected in human MT4 cells assessed as virus-induced cytopathicity to EC50 for antiviral activity against HIV-1 IIIB infected in human MT4 cells assessed as reduction in virus induced cytopathic effect; assay type: functional
[2] = Selectivity index, ratio of CC50 for cytotoxicity against human MT4 cells assessed as reduction in cell viability to EC50 for antiviral activity against NNRTI-resistant HIV-1 harboring K103N mutant infected in human MT4 cells; assay type: toxicity, cell-based; conditions: read-out: Ratio CC50/EC50
[3] = Selectivity index, ratio of CC50 for cytotoxicity against human MT4 cells assessed as reduction in cell viability to EC50 for antiviral activity against HIV-1 RES056 infected in human MT4 cells assessed as reduction in virus induced cytopathic effect; assay type: toxicity, cell-based; conditions: read-out: Ratio CC50/EC50
[4] = test system: Human immunodeficiency virus 1; test: Antiviral activity against NNRTI-resistant HIV-1 harboring F227L/V106A double mutant infected in human MT4 cells assessed as virus-induced cytopathicity incubated for 5 days by MTT assay; assay type: functional, organism-based; conditions: Human immunodeficiency virus 1, MT4, 120 h
[5] = as §1, with “K103N” for “Y188L”; assay type: functional
[6] = test system: Human immunodeficiency virus 1; test: Antiviral activity against NNRTI-resistant HIV-1 harboring Y181C mutant infected in human MT4 cells assessed as virus-induced cytopathicity incubated for 5 days by MTT assay; assay type: functional, organism-based; conditions: Human immunodeficiency virus 1, MT4, 120 h
[7] = test system: Human immunodeficiency virus 1; test: Antiviral activity against NNRTI-resistant HIV-1 harboring K103N mutant infected in human MT4 cells assessed as virus-induced cytopathicity incubated for 5 days by MTT assay; assay type: functional, organism-based; conditions: Human immunodeficiency virus 1, MT4, 120 h
[8] = test system: Human immunodeficiency virus 1; test: Antiviral activity against NNRTI-resistant HIV-1 harboring L100I mutant infected in human MT4 cells assessed as virus-induced cytopathicity incubated for 5 days by MTT assay; assay type: functional, organism-based; conditions: Human immunodeficiency virus 1, MT4, 120 h
[9] = target: Human immunodeficiency virus type 1 reverse transcriptase (Human immunodeficiency virus 1, UniProt Q72547); test: Inhibition of wild type HIV-1 reverse transcriptase assessed as reduction of biotin-dUTP incorporation into […] using ABTS as substrate incubated for 1 hrs by ELISA analysis
[10] = test system: Human immunodeficiency virus 1; test: Antiviral activity against NNRTI-resistant HIV-1 harboring E138K mutant infected in human MT4 cells assessed as virus-induced cytopathicity incubated for 5 days by MTT assay; assay type: functional, organism-based; conditions: Human immunodeficiency virus 1, MT4, 120 h
[11] = as §1, with “F227L/V106A double” for “Y188L”, “RES056” for “IIIB”; assay type: functional
[12] = Selectivity index, ratio of CC50 for cytotoxicity against human MT4 cells assessed as reduction in cell viability to EC50 for antiviral activity against HIV-1 IIIB infected in human MT4 cells assessed as reduction in virus induced cytopathic effect; assay type: toxicity, cell-based; conditions: read-out: Ratio CC50/EC50
[13] = as §1, with “F227L/V106A double” for “Y188L”; assay type: functional
[14] = Cytotoxicity against human MT4 cells assessed as cell growth inhibition incubated for 5 days by MTT assay; assay type: toxicity, cell-based; conditions: time 5 day
[15] = as §1, with “Y181C” for “Y188L”; assay type: functional
[16] = test system: Human immunodeficiency virus 1; test: Antiviral activity against HIV-1 IIIB infected in human MT4 cells assessed as reduction in virus induced cytopathic effect incubated for 5 days by MTT assay; assay type: functional, organism-based; conditions: Human immunodeficiency virus 1, IIIB, MT4, 120 h
[17] = as §1, with “E138K” for “Y188L”; assay type: functional
[18] = Selectivity index, ratio of CC50 for cytotoxicity against human MT4 cells assessed as reduction in cell viability to EC50 for antiviral activity against NNRTI-resistant HIV-1 harboring Y181C mutant infected in human MT4 cells; assay type: toxicity, cell-based; conditions: read-out: Ratio CC50/EC50
[19] = as §1, with “L100I” for “Y188L”; assay type: functional
[20] = Selectivity index, ratio of CC50 for cytotoxicity against human MT4 cells assessed as reduction in cell viability to EC50 for antiviral activity against NNRTI-resistant HIV-1 harboring Y188L mutant infected in human MT4 cells; assay type: toxicity, cell-based; conditions: read-out: Ratio CC50/EC50
[21] = test system: Human immunodeficiency virus 1; test: Antiviral activity against HIV-1 RES056 infected in human MT4 cells assessed as reduction in virus induced cytopathic effect incubated for 5 days by MTT assay; assay type: functional, organism-based; conditions: Human immunodeficiency virus 1, RES056, MT4, 120 h
[22] = Selectivity index, ratio of CC50 for cytotoxicity against human MT4 cells assessed as reduction in cell viability to EC50 for antiviral activity against NNRTI-resistant HIV-1 harboring F227L/V106A double mutant infected in human MT4 cells; assay type: toxicity, cell-based; conditions: read-out: Ratio CC50/EC50
[23] = Selectivity index, ratio of CC50 for cytotoxicity against human MT4 cells assessed as reduction in cell viability to EC50 for antiviral activity against NNRTI-resistant HIV-1 harboring L100I mutant infected in human MT4 cells; assay type: toxicity, cell-based; conditions: read-out: Ratio CC50/EC50
[24] = Selectivity index, ratio of CC50 for cytotoxicity against human MT4 cells assessed as reduction in cell viability to EC50 for antiviral activity against NNRTI-resistant HIV-1 harboring E138K mutant infected in human MT4 cells; assay type: toxicity, cell-based; conditions: read-out: Ratio CC50/EC50
[25] = test system: Human immunodeficiency virus 1; test: Antiviral activity against NNRTI-resistant HIV-1 harboring Y188L mutant infected in human MT4 cells assessed as virus-induced cytopathicity incubated for 5 days by MTT assay; assay type: functional, organism-based; conditions: Human immunodeficiency virus 1, MT4, 120 h

| SMILES | Ratio EC50 [1] | selectivity ratio [2] | selectivity ratio [3] | pEC50 [4] | Ratio EC50 [5] | pEC50 [6] | pEC50 [7] | pEC50 [8] | pIC50 [9] | pEC50 [10] | Ratio EC50 [11] | selectivity ratio [12] | Ratio EC50 [13] | CC50 at 120 h [14] | Ratio EC50 [15] | pEC50 [16] | Ratio EC50 [17] | selectivity ratio [18] | Ratio EC50 [19] | selectivity ratio [20] | also measured |
| --- | --- | --- | --- | --- | --- | --- | --- | --- | --- | --- | --- | --- | --- | --- | --- | --- | --- | --- | --- | --- | --- |
| Cc1cc(C#N)cc(C)c1Oc1nc(Nc2ccc(C#N)cc2)ncc1C(N)=O | 16.9 | 650 | 4 | 5.59 | 4.3 | 6.40 | 7.30 | 6.77 | 6.71 | 7.15 | 785.5 | 2820 | 223.3 | 32200 nM | 34.6 | 7.96 | 6.2 | 82 | 14.7 | 167 | pEC50 [21]: 5.05; selectivity ratio [22]: 13; selectivity ratio [23]: 192; selectivity ratio [24]: 459; pEC50 [25]: 6.71 |
| Cc1cc(C#N)cc(C)c1Oc1nc(NC2CCN(c3ccc(NS(=O)(=O)C4CC4)cc3)CC2)ncc1C(N)=O | 4.5 | 23400 | 4920 | 7.47 | 1.2 | 7.35 | 8.05 | 7.19 | 7.42 | 6.13 | 5.5 | 27200 | 4.5 | 208000 nM | 6 | 8.10 | 96.2 | 4570 | 8.5 | 6000 | pEC50 [21]: 7.38; selectivity ratio [22]: 6070; selectivity ratio [23]: 3190; selectivity ratio [24]: 283; pEC50 [25]: 7.46 |
| Cc1cc(C#N)cc(C)c1Oc1nc(NC2CCN(Cc3ccc(C(N)=O)cc3)CC2)ncc1C(N)=O | 17.1 | > 5580 | > 14 | 5.34 | 1 | 6.54 | 7.35 | 7.14 | 6.80 | 6.42 | 394.1 | > 5560 | 100.3 | > 250000 nM | 6.3 | 7.35 | 8.4 | > 876 | 1.6 | > 324 | pEC50 [21]: 4.75; selectivity ratio [22]: > 55; selectivity ratio [23]: > 344; selectivity ratio [24]: > 659; pEC50 [25]: 6.11 |
| Cc1cc(C#N)cc(C)c1Oc1nc(Nc2ccc(C#N)c(F)c2)ncc1C(N)=O | 9.4 | 1770 | 5 | 5.51 | 1.8 | 6.74 | 7.70 | 7.30 | 6.77 | 7.29 | 663.7 | 3230 | 287.6 | 34900 nM | 16.6 | 7.96 | 4.7 | 194 | 4.6 | 345 | pEC50 [21]: 5.14; selectivity ratio [22]: 11; selectivity ratio [23]: 698; selectivity ratio [24]: 681; pEC50 [25]: 7.00 |
| Cc1cc(C#N)cc(C)c1Oc1nc(NC2CCN(c3ccc(N)cc3)CC2)ncc1C(N)=O | 6.2 | 4120 | 46 | 5.97 | 1.1 | 6.60 | 7.35 | 6.56 | 6.62 | 6.68 | 96.4 | 4420 | 26.1 | 183000 nM | 6.1 | 7.38 | 5 | 726 | 6.6 | 718 | pEC50 [21]: 5.40; selectivity ratio [22]: 169; selectivity ratio [23]: 668; selectivity ratio [24]: 881; pEC50 [25]: 6.59 |
| Cc1cc(C#N)cc(C)c1Oc1nc(NC2CCN(Cc3ccc(S(C)(=O)=O)cc3)CC2)ncc1C(N)=O | 12.1 | > 4460 | > 68 | 6.49 | 0.9 | 7.47 | 8.30 | 7.96 | 6.91 | 6.83 | 605.5 | > 41100 | 57.4 | > 234000 nM | 6 | 8.22 | 26.2 | > 6790 | 1.9 | > 3400 | pEC50 [21]: 5.46; selectivity ratio [22]: > 716; selectivity ratio [23]: > 221; selectivity ratio [24]: > 1560; pEC50 [25]: 7.16 |
| Cc1cc(C#N)cc(C)c1Oc1nc(NC2CCN(c3ccc(NS(C)(=O)=O)cc3)CC2)ncc1C(N)=O | 1.2 | > 1510 | > 7 | 6.11 | 8 | 6.59 | 6.81 | 6.61 | 6.70 | 6.65 | 1716.7 | > 12100 | 40.3 | > 233000 nM | 13.4 | 7.72 | 11.6 | > 901 | 12.7 | > 9940 | pEC50 [21]: 4.48; selectivity ratio [22]: > 299; selectivity ratio [23]: > 946; selectivity ratio [24]: > 1040; pEC50 [25]: 7.62 |
| Cc1cc(C#N)cc(C)c1Oc1nc(NC2CCN(Cc3ccc(B(O)O)cc3)CC2)ncc1C(N)=O | 5 | > 5550 | > 38 | 5.96 | 1.1 | 6.80 | 7.35 | 6.88 | 5.98 | 6.78 | 159.1 | > 5990 | 26.2 | > 250000 nM | 3.8 | 7.38 | 4 | > 1570 | 3.2 | > 1190 | pEC50 [21]: 5.18; selectivity ratio [22]: > 229; selectivity ratio [23]: > 187; selectivity ratio [24]: > 1520; pEC50 [25]: 6.68 |
| Cc1cc(C#N)cc(C)c1Oc1nc(NC2CCN(c3ccc(NS(N)(=O)=O)cc3)CC2)ncc1C(N)=O | 3.6 | 4730 | 1 | 6.23 | 1.1 | 6.75 | 7.43 | 6.43 | 6.03 | 6.92 | 4648.8 | 5370 | 17.9 | 176000 nM | 5.4 | 7.48 | 3.7 | 997 | 11.3 | 1480 | pEC50 [21]: 3.82; selectivity ratio [22]: 301; selectivity ratio [23]: 474; selectivity ratio [24]: 1470; pEC50 [25]: 6.93 |
